Here are results for 37 molecules from patent US8575156B2, “Cyclic inhibitors of 11β-hydroxysteroid dehydrogenase 1” (Vitae Pharmaceuticals, Inc., priority 2007, dated 2013).

Test [1] has as its target T1, 11β-HSD1 (Homo sapiens, UniProt P28845). The following applies: for Average % inhibition at 111.1 nM: 111.1 nM compound, 0.1111 µM; for Average % inhibition at 100 nM: 0.1 µM; for pIC50: read-out: IC50 Range, microsomes from CHO cells overexpressing human 11β-HSD1.
Test [2] has as its target T1, 11β-HSD1. Kind of test: biochemical. The following applies: for pIC50: IC50 Range; for inhibition at 0.1 µM: read-out: Average % inhibition at 100 nM, Biological Test Example 1, 100 nM compound; for inhibition at 0.1111 µM: read-out: Average % inhibition at 111.1 nM, Biological Test Example 1, 111.1 nM compound.
[3] abbreviates: Biological Test Example 1, microsomes from CHO cells overexpressing human 11β-HSD1.
[4] abbreviates: Biological Test Example 1, 100 nM compound.

pIC50: −log10 of the molar value. Where two headings read alike, the source gives them in different places.

T1 sequence (P28845 whole entry): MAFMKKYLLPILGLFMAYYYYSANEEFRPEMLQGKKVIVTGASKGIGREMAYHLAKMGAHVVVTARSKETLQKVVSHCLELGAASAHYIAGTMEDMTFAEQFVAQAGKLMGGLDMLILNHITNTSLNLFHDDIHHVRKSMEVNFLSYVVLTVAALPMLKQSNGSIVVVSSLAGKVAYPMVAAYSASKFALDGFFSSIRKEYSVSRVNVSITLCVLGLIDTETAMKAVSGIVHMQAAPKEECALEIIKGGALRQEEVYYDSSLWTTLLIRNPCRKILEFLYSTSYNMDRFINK

What is called pIC50 is the negative decadic logarithm of the IC50, by convention in mol/L. With `O=C1OC(CCO)(c2ccccc2F)CCN1c1cccc(-c2ccc(F)cc2)n1` (single isomer, unassigned) [EXAMPLE 104 Isomer 2], the “Average % inhibition at 111.1 nM” value in test [1] (Biological Test Example 1) is on record as 98.1%. Further, in test [2] (setting [3]), the pIC50 is more than 7.00.
`C[C@@H](c1ccccc1)N1CCC(CO)(c2ccc(F)cc2)OC1=O` (single isomer, unassigned) [EXAMPLE 114 Isomer 1]: the “Average % inhibition at 100 nM” value in test [1] (setting [4]) turned out to be 17.4%. Also, the pIC50 in test [2] (setting [3]) is less than 6.00.
The like results for `C[C@@H](c1ccccc1)N1CCC(CO)(c2ccc(F)cc2)OC1=O` (single isomer, unassigned) [EXAMPLE 114 Isomer 2] were, in that order, 66.6% and more than 7.00.
The term inhibition denotes the relative decrease from the control value, in per cent. In the case of `C=CCC1(c2ccc(F)cc2)CCN([C@@H](C)c2ccc(Br)cn2)C(=O)O1` (single isomer, unassigned) [EXAMPLE 128 Isomer 1], the “Average % inhibition at 111.1 nM” value in test [1] (Biological Test Example 1) is reported as 27.5%. This molecule also had a negative logarithm of the IC50 (pIC50) in test [2] (setting [3]) of 6.00 to 7.00. The inhibition at 0.1 µM in test [2] was 26.1%.
For `C=CCC1(c2ccc(F)cc2)CCN([C@@H](C)c2ccc(Br)cn2)C(=O)O1` (single isomer, unassigned) [EXAMPLE 128 Isomer 2], in test [1] (Biological Test Example 1), the “Average % inhibition at 111.1 nM” value was 6.5%. For the same molecule, the negative-log IC50 (pIC50) in test [2] (setting [3]) was less than 6.00.
For `C=CCC1(c2ccc(F)cc2)CCN([C@@H](CC)c2ccc(Br)cc2)C(=O)O1` (single isomer, unassigned) [EXAMPLE 130 Isomer 2], the pIC50 in test [1] (Biological Test Example 1) was more than 7.00. Besides, in test [2], the inhibition at 0.1111 µM was 87.7%.
As to `CC[C@@H](c1ccc(Br)cc1)N1CCC(CCO)(c2ccc(F)cc2)OC1=O` (single isomer, unassigned) [EXAMPLE 143 Isomer 2], the negative-log IC50 (pIC50) in test [1] (Biological Test Example 1) was more than 7.00. The inhibition at 0.1 µM in test [2] is 95.4%.
For the molecule `C[C@@H](c1ccc(Br)cc1)N1CC[C@](CC(O)CO)(c2ccc(F)cc2)OC1=O` (single isomer, unassigned) [EXAMPLE 144 Isomer 2], in test [1] (Biological Test Example 1), the “Average % inhibition at 111.1 nM” value is listed as 96.6% and the negative logarithm of the IC50 (pIC50) is more than 7.00. Moreover, in test [2], the inhibition at 0.1 µM came out at 95.3%.
In the case of `C=CCC1(c2cccs2)CCN([C@@H](C)c2ccc(Br)cc2)C(=O)O1` (single isomer, unassigned) [EXAMPLE 157 Isomer 2], the “Average % inhibition at 100 nM” value in test [1] (setting [4]) is recorded as 92.9%. For the same molecule, in test [1] (Biological Test Example 1), the pIC50 is more than 7.00. Besides, the inhibition at 0.1111 µM in test [2] came out at 90.7%.
For the molecule `C=CCC1(c2cccs2)CCN([C@@H](C)c2ccc(-c3ccc(F)cc3)cc2)C(=O)O1` (single isomer, unassigned) [EXAMPLE 160 Isomer 2], in test [1] (Biological Test Example 1), the “Average % inhibition at 111.1 nM” value is recorded as 95.2% and the pIC50 is more than 7.00. Further, the inhibition at 0.1 µM in test [2] worked out at 95.9%.
Take `CC1CC(CCO)(c2ccc(F)cc2)OC(=O)N1[C@@H](C)c1ccc(Br)cc1` (single isomer, unassigned) [EXAMPLE 163 Isomer 2]: in test [1] (setting [4]), the “Average % inhibition at 100 nM” value worked out at 96.9%. This molecule also showed a negative logarithm of the IC50 (pIC50) in test [2] (setting [3]) of more than 7.00.
On to `CC1CC(CCO)(c2ccc(F)cc2)OC(=O)N1[C@@H](C)c1ccc(Br)cc1` (single isomer, unassigned) [EXAMPLE 163 Isomer 3], for which, in test [1] (setting [4]), the “Average % inhibition at 100 nM” value was 11.3%. This molecule showed a pIC50 in test [2] (setting [3]) of less than 7.00.
For the molecule `C[C@@H](c1ccc(-c2ccc(F)cc2F)cc1)N1CCC(CCCO)(c2cccs2)OC1=O` (single isomer, unassigned) [EXAMPLE 171 Isomer 1], in test [1] (setting [4]), the “Average % inhibition at 100 nM” value came to 95.7%. The molecule also showed a pIC50 in test [2] (setting [3]) of more than 7.00.
On to `CC(C)C1(CCCO)CCN([C@@H](C)c2ccc(Cl)cc2)C(=O)O1` (single isomer, unassigned) [EXAMPLE 187 Isomer 1], for which the “Average % inhibition at 100 nM” value in test [1] stood at 98.7%. In test [2] (setting [3]), this molecule had a pIC50 of more than 7.00.
`O=C1OC(CCCO)(c2ccccc2)CCN1C1CC1c1ccccc1` (single isomer, unassigned) [EXAMPLE 188 Isomer 1, 6-(3-hydroxypropyl)-6-phenyl-3-(2-phenylcyclopropyl)-1,3-oxazinan-2-one]: in test [1] (setting [4]), the “Average % inhibition at 100 nM” value is listed as 77.0%. Also, the negative logarithm of the IC50 (pIC50) in test [2] (setting [3]) is more than 7.00.
As for `O=C1OC(CCCO)(c2ccccc2)CCN1C1CC1c1ccccc1` (single isomer, unassigned) [EXAMPLE 188 Isomer 2, 6-(3-hydroxypropyl)-6-phenyl-3-(2-phenylcyclopropyl)-1,3-oxazinan-2-one], the “Average % inhibition at 100 nM” value in test [1] (setting [4]) worked out at 31.7%. The pIC50 in test [2] (setting [3]) is less than 7.00.
Turning to `COc1ccc([C@H](C)N2CCC(CCCO)(c3ccc(F)cc3)OC2=O)cc1` (single isomer, unassigned) [EXAMPLE 201 Isomer 1], the “Average % inhibition at 100 nM” value in test [1] (setting [4]) came to 93.2%. The same molecule showed a negative-log IC50 (pIC50) in test [2] (setting [3]) of more than 7.00.
In the case of `COc1ccc([C@H](C)N2CCC(CCCO)(c3ccc(F)cc3)OC2=O)cc1` (single isomer, unassigned) [EXAMPLE 201 Isomer 2], the “Average % inhibition at 100 nM” value in test [1] (setting [4]) stood at 27.0%. This molecule also had a negative-log IC50 (pIC50) in test [2] (setting [3]) of less than 7.00.
The like results for `CC(C)(C)OC(=O)N1CCC(N2CCC(CCCO)(c3ccccc3)OC2=O)C1` (single isomer, unassigned) [EXAMPLE 208 Isomer 1] were, in that order, 76.6% and more than 7.00.
The like results for `CC(C)(C)OC(=O)N1CCC(N2CCC(CCCO)(c3ccccc3)OC2=O)C1` (single isomer, unassigned) [EXAMPLE 208 Isomer 2] were, in that order, 38.5% and less than 7.00.
With `CC(C)(C)OC(=O)N1CCC(N2CCC(CCCO)(c3ccccc3)OC2=O)C1` (single isomer, unassigned) [EXAMPLE 208 Isomer 3], the “Average % inhibition at 100 nM” value in test [1] (setting [4]) came out at 64.6%. For the same molecule, the negative logarithm of the IC50 (pIC50) in test [2] (setting [3]) is more than 7.00.
The like results for `CC(C)(C)OC(=O)N1CCC(N2CCC(CCCO)(c3ccccc3)OC2=O)C1` (single isomer, unassigned) [EXAMPLE 208 Isomer 4] were, in that order, 29.3% and more than 7.00.
Regarding `CC(C)C1(CC(O)CO)CCN([C@@H](C)c2ccc(-c3ccc(F)cc3F)cc2)C(=O)O1` (single isomer, unassigned) [EXAMPLE 223 Isomer 1], the “Average % inhibition at 100 nM” value in test [1] (setting [4]) is 94.2%. In test [2] (setting [3]), this molecule gave a negative logarithm of the IC50 (pIC50) of more than 7.00.
Turning to `CC(C)C1(CC(O)CO)CCN([C@@H](C)c2ccc(-c3ccc(F)cc3F)cc2)C(=O)O1` (single isomer, unassigned) [EXAMPLE 223 Isomer 2], the “Average % inhibition at 100 nM” value in test [1] (setting [4]) is 97.1%. This molecule showed a negative logarithm of the IC50 (pIC50) in test [2] (setting [3]) of more than 7.00.
For `CC(C)C1(CC(O)CO)CCN([C@@H](C)c2ccc(-c3ccc(F)cc3F)cc2)C(=O)O1` (single isomer, unassigned) [EXAMPLE 223 Isomer 3] the same measures were 27.8% and less than 7.00.
On to `CC(C)C1(CC(O)CO)CCN([C@@H](C)c2ccc(-c3ccc(F)cc3F)cc2)C(=O)O1` (single isomer, unassigned) [EXAMPLE 223 Isomer 4], for which the “Average % inhibition at 100 nM” value in test [1] (setting [4]) came out at 52.5%. Moreover, the pIC50 in test [2] (setting [3]) was less than 7.00.
As for `C[C@@H](c1ccc(-c2ccc(F)cc2F)cc1)N1CCC(CCO)(c2cccs2)OC1=O` (single isomer, unassigned) [EXAMPLE 233 Isomer 1], the “Average % inhibition at 100 nM” value in test [1] (setting [4]) worked out at 98.9%. In test [2] (setting [3]), this molecule gave a pIC50 of more than 7.00.
As for `C[C@@H](c1ccc(-c2ccc(F)cc2F)cc1)N1CC[C@](CC(O)CN(C)C)(c2ccc(F)cc2)OC1=O` (single isomer, unassigned) [EXAMPLE 273 Isomer 1], the “Average % inhibition at 100 nM” value in test [1] (setting [4]) is on record as 53.6%. In test [2] (setting [3]), this molecule gave a pIC50 of more than 7.00.
Regarding `C[C@@H](c1ccc(-c2ccc(F)cc2F)cc1)N1CC[C@](CC(O)CN(C)C)(c2ccc(F)cc2)OC1=O` (single isomer, unassigned) [EXAMPLE 273 Isomer 2], in test [1] (setting [4]), the “Average % inhibition at 100 nM” value stood at 17.9%. Moreover, the negative logarithm of the IC50 (pIC50) in test [2] (setting [3]) is less than 7.00.
Turning to `C[C@@H](c1ccc(-c2ccc(F)cc2F)cc1)N1CC[C@](CC(O)CNC(N)=O)(c2ccc(F)cc2)OC1=O` (single isomer, unassigned) [EXAMPLE 276 Isomer 1], the “Average % inhibition at 100 nM” value in test [1] (setting [4]) is reported as 83.1%. The pIC50 in test [2] (setting [3]) was more than 7.00.
As to `C[C@@H](c1ccc(-c2ccc(F)cc2F)cc1)N1CC[C@](CC(O)CNC(N)=O)(c2ccc(F)cc2)OC1=O` (single isomer, unassigned) [EXAMPLE 276 Isomer 2], the “Average % inhibition at 100 nM” value in test [1] (setting [4]) was 35.4%. In addition, the negative logarithm of the IC50 (pIC50) in test [2] (setting [3]) was less than 7.00.
With `C[C@@H](c1ccc(-c2ccc(F)cc2)cc1)N1CC[C@](CC(O)CNS(C)(=O)=O)(c2ccc(F)cc2)OC1=O` (single isomer, unassigned) [EXAMPLE 277 Isomer 1], in test [1], the “Average % inhibition at 100 nM” value was 91.1%. The molecule also showed a negative-log IC50 (pIC50) in test [2] of more than 7.00.
`C[C@@H](c1ccc(-c2ccc(F)cc2)cc1)N1CC[C@](CC(O)CN(C)S(C)(=O)=O)(c2ccc(F)cc2)OC1=O` (single isomer, unassigned) [EXAMPLE 278 Isomer 1]: the “Average % inhibition at 100 nM” value in test [1] (setting [4]) is listed as 86.6%. The molecule also had a negative-log IC50 (pIC50) in test [2] (setting [3]) of more than 7.00.
Regarding `COc1ccc([C@H](C)N2CCC(CC(O)CO)(c3ccccc3)OC2=O)cc1` (single isomer, unassigned) [EXAMPLE 286 Isomer 1], the “Average % inhibition at 100 nM” value in test [1] (setting [4]) is given as 94.1%. Further, the negative-log IC50 (pIC50) in test [2] (setting [3]) was more than 7.00.
In the case of `COc1ccc([C@H](C)N2CCC(CC(O)CO)(c3ccccc3)OC2=O)cc1` (single isomer, unassigned) [EXAMPLE 286 Isomer 2], in test [1] (setting [4]), the “Average % inhibition at 100 nM” value turned out to be 94.5%. Moreover, the pIC50 in test [2] (setting [3]) is more than 7.00.
Regarding `COc1ccc([C@H](C)N2CCC(CC(O)CO)(c3ccccc3)OC2=O)cc1` (single isomer, unassigned) [EXAMPLE 286 Isomer 3], the “Average % inhibition at 100 nM” value in test [1] (setting [4]) came out at 70.5%. Also, the pIC50 in test [2] (setting [3]) is more than 7.00.
Regarding `COc1ccc([C@H](C)N2CCC(CC(O)CO)(c3ccccc3)OC2=O)cc1` (single isomer, unassigned) [EXAMPLE 286 Isomer 4], the “Average % inhibition at 100 nM” value in test [1] (setting [4]) amounted to 29.3%. Also, in test [2] (setting [3]), the negative logarithm of the IC50 (pIC50) was less than 7.00.
